Assay results from ChEMBL document CHEMBL3272260, “Metabolic and photochemical hydroxylation of 5-nitro-2-furancarboxaldehyde derivatives” (J Med Chem, 1976).
Values belong to the compound of their own block, whether it stands above or below them.

Key:
[1] = Chemical stability of the compound; format: physicochemical
[2] = Half life of the compound under atmospheric pressure condition; format: physicochemical
[3] = Half life of the compound under in-vacuo condition; format: physicochemical
[4] = Drug metabolism in rat urine treated with nitrofurantoin at 100 mg/kg, po measured up to 6 hrs by UV-spectroscopic analysis; format: ADME, organism-based; design: dose 100 mg/kg, route oral; settings: in vivo
[5] = Drug metabolism in rat urine treated with nitrofurantoin at 100 mg/kg, po measured up to 6 hrs by IR-spectroscopic analysis; format: ADME, organism-based; design: dose 100 mg/kg, route oral; settings: in vivo
[6] = Drug metabolism in rat urine treated with nitrofurantoin at 100 mg/kg, po measured up to 6 hrs by NMR-spectroscopic analysis; format: ADME, organism-based; design: dose 100 mg/kg, route oral; settings: in vivo
[7] = Dissociation constant, pKa of the compound by potentiometric titration analysis; format: physicochemical
[8] = Half life of the compound in 0.1% aqueous solution; format: physicochemical

Stability [1]: Stable
SMILES: O=C1C=C(/C=N/N2CCOC2=O)OC1=[N+]([O-])[O-].[K+]

half-life [2]: 120 h
half-life [3]: > 624 h
SMILES: O.O=C1OCCN1/N=C/c1cc(O)c([N+](=O)[O-])o1

Drug metabolism [4]: metabolite_detected
Drug metabolism [5]: metabolite_detected
Drug metabolism [6]: metabolite_detected
Stability [1]: Stable
SMILES: O.O=C1CN(/N=C/C2=CC(=O)C(=[N+]([O-])[O-])O2)C(=O)N1.[K+]

pKa [7]: 2.7
half-life at 0.1 % [8]: 48 h
SMILES: O.O.O=C1OCCN1/N=C/c1cc(O)c([N+](=O)[O-])o1
